≈ marks a conversion by molar mass, not a printed value.

Common to all, as to format: functional
The test system of assay [1] is Staphylococcus aureus. The assay can be described thus: Antibacterial activity against methicillin-resistant Staphylococcus aureus assessed growth inhibition by micro broth dilution method.
The test system of assay [2] is Staphylococcus aureus. The assay can be described thus: Antibacterial activity against Staphylococcus aureus assessed growth inhibition by micro broth dilution method.
Assay [3] concerns Staphylococcus aureus. The assay can be described thus: Antibacterial activity against Staphylococcus aureus ATCC 25923 assessed growth inhibition by micro broth dilution method. A general note: Broth dilution looks for growth in wells or tubes with falling amounts of substance.
In assay [4] the test system is Staphylococcus aureus. Put plainly: Antibacterial activity against Staphylococcus aureus ATCC 29213 assessed growth inhibition by micro broth dilution method.
The subject of a further assay is Enterococcus faecalis. The assay can be described thus: Antibacterial activity against Enterococcus faecalis assessed growth inhibition by micro broth dilution method.
Another assay concerns Klebsiella pneumoniae. The assay can be described thus: Antibacterial activity against Klebsiella pneumonia assessed growth inhibition by micro broth dilution method.
Assay [5] has as its system Escherichia coli. Put plainly: Antibacterial activity against Escherichia coli assessed growth inhibition by micro broth dilution method.
Assay [6] has as its system Escherichia coli. Put plainly: Antibacterial activity against Escherichia coli ATCC 25922 assessed growth inhibition by micro broth dilution method.
Assay [7] concerns Pseudomonas aeruginosa. Put plainly: Antibacterial activity against Pseudomonas aeruginosa assessed growth inhibition by micro broth dilution method.
The subject of assay [8] is Pseudomonas aeruginosa. The assay can be described thus: Antibacterial activity against Pseudomonas aeruginosa ATCC 27853 assessed growth inhibition by micro broth dilution method.
The next assay relates to Acinetobacter baumannii. The assay can be described thus: Antibacterial activity against Acinetobacter baumannii assessed growth inhibition by micro broth dilution method.

In the case of `CCOC(=O)C(C#N)c1cc2c(cc1F)c(=O)c(C(=O)O)cn2Cc1ccc(Cl)cc1Cl` (stereo not given), the MIC (usually the least concentration at which growth counts as inhibited) in the assay on Staphylococcus aureus [1] was determined as 2 µg/mL (≈ 4.19 µM); against Staphylococcus aureus [2], 1 µg/mL (≈ 2.1 µM); with Staphylococcus aureus [3] it was 1 µg/mL (≈ 2.1 µM); with Staphylococcus aureus [4] it was 2 µg/mL (≈ 4.19 µM); in the assay on Enterococcus faecalis it was 8 µg/mL (≈ 16.8 µM); against Klebsiella pneumoniae, 0.25 µg/mL (≈ 0.524 µM). The MIC was 16 µg/mL (≈ 33.5 µM) in the assay on Escherichia coli [5]; 0.5 µg/mL (≈ 1.05 µM) in the assay on Escherichia coli [6]; 4 µg/mL (≈ 8.38 µM) with Pseudomonas aeruginosa [7]; 2 µg/mL (≈ 4.19 µM) against Pseudomonas aeruginosa [8]; 1 µg/mL (≈ 2.1 µM) with Acinetobacter baumannii.

In the case of `CCOC(=O)c1cn(CC)c2cc(F)c(F)cc2c1=O`, the MIC was determined as 256 µg/mL (≈ 910 µM) against Staphylococcus aureus [1]; 32 µg/mL (≈ 114 µM) in the assay on Staphylococcus aureus [2]; 256 µg/mL (≈ 910 µM) against Staphylococcus aureus [3]; 128 µg/mL (≈ 455 µM) against Staphylococcus aureus [4]; 128 µg/mL (≈ 455 µM) in the assay with Enterococcus faecalis; 64 µg/mL (≈ 228 µM) against Klebsiella pneumoniae. Also, the MIC in the assay on Escherichia coli [5] came out at 16 µg/mL (≈ 56.9 µM); against Escherichia coli [6], 64 µg/mL (≈ 228 µM); with Pseudomonas aeruginosa [7] it was 64 µg/mL (≈ 228 µM); in the assay on Pseudomonas aeruginosa [8], 256 µg/mL (≈ 910 µM); with Acinetobacter baumannii, 256 µg/mL (≈ 910 µM).

With `CCOC(=O)c1cn(CC)c2cc(C(C#N)C(=O)OCC)c(F)cc2c1=O` (stereo not given), the MIC was determined as 256 µg/mL (≈ 684 µM) in the assay on Staphylococcus aureus [1]; 32 µg/mL (≈ 85.5 µM) in the assay on Staphylococcus aureus [2]; 8 µg/mL (≈ 21.4 µM) with Staphylococcus aureus [3]; 16 µg/mL (≈ 42.7 µM) against Staphylococcus aureus [4]; 32 µg/mL (≈ 85.5 µM) in the assay with Enterococcus faecalis; 8 µg/mL (≈ 21.4 µM) against Klebsiella pneumoniae. In addition, the MIC was found to be 16 µg/mL (≈ 42.7 µM) in the assay on Escherichia coli [5]; 16 µg/mL (≈ 42.7 µM) against Escherichia coli [6]; 8 µg/mL (≈ 21.4 µM) in the assay with Pseudomonas aeruginosa [7]; 8 µg/mL (≈ 21.4 µM) against Pseudomonas aeruginosa [8]; 32 µg/mL (≈ 85.5 µM) in the assay on Acinetobacter baumannii.

As to `CCCCCCCCCCCCn1cc(C(=O)OCC)c(=O)c2cc(F)c(F)cc21`, the MIC in the assay with Staphylococcus aureus [1] came to 256 µg/mL (≈ 607 µM); in the assay with Staphylococcus aureus [2], 32 µg/mL (≈ 75.9 µM); against Staphylococcus aureus [3] it was 128 µg/mL (≈ 304 µM); with Staphylococcus aureus [4] it was 32 µg/mL (≈ 75.9 µM); against Enterococcus faecalis it was 64 µg/mL (≈ 152 µM); in the assay with Klebsiella pneumoniae it was 16 µg/mL (≈ 38 µM). The MIC worked out at 16 µg/mL (≈ 38 µM) with Escherichia coli [5]; 64 µg/mL (≈ 152 µM) in the assay with Escherichia coli [6]; 64 µg/mL (≈ 152 µM) in the assay with Pseudomonas aeruginosa [7]; 256 µg/mL (≈ 607 µM) with Pseudomonas aeruginosa [8]; 64 µg/mL (≈ 152 µM) in the assay with Acinetobacter baumannii.

As to `CCOC(=O)c1cn(Cc2ccccc2)c2cc([C-](C#N)C(=O)OCC)c(F)cc2c1=O.[Na+]` (stereo not given), the MIC in the assay on Staphylococcus aureus [1] amounted to 256 µg/mL; against Staphylococcus aureus [2], 64 µg/mL; against Staphylococcus aureus [3], 0.5 µg/mL; with Staphylococcus aureus [4], 4 µg/mL; in the assay with Enterococcus faecalis, 64 µg/mL; in the assay with Klebsiella pneumoniae, 4 µg/mL. For the same molecule, the MIC against Escherichia coli [5] came to 4 µg/mL; against Escherichia coli [6], 2 µg/mL; with Pseudomonas aeruginosa [7], 32 µg/mL; in the assay on Pseudomonas aeruginosa [8] it was 4 µg/mL; against Acinetobacter baumannii, 8 µg/mL.

With `CCCCCn1cc(C(=O)OCC)c(=O)c2cc(F)c([C-](C#N)C(=O)OCC)cc21.[Na+]` (stereo not given), the minimum inhibitory concentration (MIC) against Staphylococcus aureus [1] is 32 µg/mL; against Staphylococcus aureus [2], 32 µg/mL; against Staphylococcus aureus [3], 1 µg/mL; against Staphylococcus aureus [4], 4 µg/mL; against Enterococcus faecalis it was 4 µg/mL; in the assay on Klebsiella pneumoniae, 4 µg/mL. The MIC in the assay with Escherichia coli [5] came to 4 µg/mL; in the assay with Escherichia coli [6], 1 µg/mL; against Pseudomonas aeruginosa [7] it was 4 µg/mL; with Pseudomonas aeruginosa [8], 4 µg/mL; against Acinetobacter baumannii, 4 µg/mL.

`CCOC(=O)c1cn(CC(=O)N2CCCCC2)c2cc(F)c(F)cc2c1=O`: the MIC against Staphylococcus aureus [1] came to 256 µg/mL (≈ 677 µM); with Staphylococcus aureus [2], 256 µg/mL (≈ 677 µM); with Staphylococcus aureus [3], 128 µg/mL (≈ 338 µM); in the assay with Staphylococcus aureus [4] it was 64 µg/mL (≈ 169 µM); in the assay on Enterococcus faecalis, 64 µg/mL (≈ 169 µM); with Klebsiella pneumoniae, 256 µg/mL (≈ 677 µM). The MIC against Escherichia coli [5] worked out at 16 µg/mL (≈ 42.3 µM); against Escherichia coli [6] it was 64 µg/mL (≈ 169 µM); against Pseudomonas aeruginosa [7], 32 µg/mL (≈ 84.6 µM); in the assay on Pseudomonas aeruginosa [8], 64 µg/mL (≈ 169 µM); against Acinetobacter baumannii, 64 µg/mL (≈ 169 µM).

On to `CCOC(=O)c1cn2c3c(c(F)c(F)cc3c1=O)OC[C@@H]2C`, for which the MIC was determined as 64 µg/mL (≈ 207 µM) against Staphylococcus aureus [1]; 128 µg/mL (≈ 414 µM) in the assay on Staphylococcus aureus [2]; 32 µg/mL (≈ 103 µM) against Staphylococcus aureus [3]; 64 µg/mL (≈ 207 µM) against Staphylococcus aureus [4]; 128 µg/mL (≈ 414 µM) in the assay on Enterococcus faecalis; 32 µg/mL (≈ 103 µM) in the assay on Klebsiella pneumoniae. The minimal inhibitory concentration (MIC) against Escherichia coli [5] was determined as 16 µg/mL (≈ 51.7 µM); in the assay with Escherichia coli [6], 128 µg/mL (≈ 414 µM); in the assay with Pseudomonas aeruginosa [7] it was 128 µg/mL (≈ 414 µM); against Pseudomonas aeruginosa [8], 256 µg/mL (≈ 828 µM); in the assay with Acinetobacter baumannii, 32 µg/mL (≈ 103 µM).

As to `CCOC(=O)c1cn(Cc2ccccc2Cl)c2cc(F)c(F)cc2c1=O`, the MIC in the assay with Staphylococcus aureus [1] stood at 256 µg/mL (≈ 678 µM); against Staphylococcus aureus [2], 128 µg/mL (≈ 339 µM); with Staphylococcus aureus [3], 256 µg/mL (≈ 678 µM); with Staphylococcus aureus [4] it was 256 µg/mL (≈ 678 µM); in the assay with Enterococcus faecalis, 4 µg/mL (≈ 10.6 µM); against Klebsiella pneumoniae, 32 µg/mL (≈ 84.7 µM). For the same molecule, the MIC in the assay with Escherichia coli [5] stood at 2 µg/mL (≈ 5.29 µM); against Escherichia coli [6], 128 µg/mL (≈ 339 µM); in the assay on Pseudomonas aeruginosa [7], 256 µg/mL (≈ 678 µM); against Pseudomonas aeruginosa [8], 256 µg/mL (≈ 678 µM); in the assay with Acinetobacter baumannii it was 32 µg/mL (≈ 84.7 µM).

Take `CCOC(=O)c1cn(Cc2cccc(Cl)c2)c2cc(F)c(F)cc2c1=O`: the MIC was 256 µg/mL (≈ 678 µM) in the assay with Staphylococcus aureus [1]; 64 µg/mL (≈ 169 µM) in the assay on Staphylococcus aureus [2]; 64 µg/mL (≈ 169 µM) in the assay on Staphylococcus aureus [3]; 128 µg/mL (≈ 339 µM) with Staphylococcus aureus [4]; 2 µg/mL (≈ 5.29 µM) with Enterococcus faecalis; 32 µg/mL (≈ 84.7 µM) with Klebsiella pneumoniae. In addition, the minimum inhibitory concentration (MIC) against Escherichia coli [5] worked out at 1 µg/mL (≈ 2.65 µM); against Escherichia coli [6], 64 µg/mL (≈ 169 µM); against Pseudomonas aeruginosa [7], 256 µg/mL (≈ 678 µM); against Pseudomonas aeruginosa [8], 32 µg/mL (≈ 84.7 µM); in the assay with Acinetobacter baumannii it was 4 µg/mL (≈ 10.6 µM).

(Values after ChEMBL document CHEMBL5528028, “Discovery of benzopyridone cyanoacetates as new type of potential broad-spectrum antibacterial candidates” (Eur J Med Chem, 2024).)
